This note sets out measurements from patent publication US8551991B2, “1,2,3,4-tetrahydroquinoxaline derivative having glucocorticoid receptor binding activity” (Santen Pharmaceutical Co., Ltd., priority 2006, dated 2013).

The target of this assay is T1, Recombinant human GR (Homo sapiens, UniProt P04150).
T1 construct: purchased Invitrogen P2816
T1 sequence (P04150 1-777): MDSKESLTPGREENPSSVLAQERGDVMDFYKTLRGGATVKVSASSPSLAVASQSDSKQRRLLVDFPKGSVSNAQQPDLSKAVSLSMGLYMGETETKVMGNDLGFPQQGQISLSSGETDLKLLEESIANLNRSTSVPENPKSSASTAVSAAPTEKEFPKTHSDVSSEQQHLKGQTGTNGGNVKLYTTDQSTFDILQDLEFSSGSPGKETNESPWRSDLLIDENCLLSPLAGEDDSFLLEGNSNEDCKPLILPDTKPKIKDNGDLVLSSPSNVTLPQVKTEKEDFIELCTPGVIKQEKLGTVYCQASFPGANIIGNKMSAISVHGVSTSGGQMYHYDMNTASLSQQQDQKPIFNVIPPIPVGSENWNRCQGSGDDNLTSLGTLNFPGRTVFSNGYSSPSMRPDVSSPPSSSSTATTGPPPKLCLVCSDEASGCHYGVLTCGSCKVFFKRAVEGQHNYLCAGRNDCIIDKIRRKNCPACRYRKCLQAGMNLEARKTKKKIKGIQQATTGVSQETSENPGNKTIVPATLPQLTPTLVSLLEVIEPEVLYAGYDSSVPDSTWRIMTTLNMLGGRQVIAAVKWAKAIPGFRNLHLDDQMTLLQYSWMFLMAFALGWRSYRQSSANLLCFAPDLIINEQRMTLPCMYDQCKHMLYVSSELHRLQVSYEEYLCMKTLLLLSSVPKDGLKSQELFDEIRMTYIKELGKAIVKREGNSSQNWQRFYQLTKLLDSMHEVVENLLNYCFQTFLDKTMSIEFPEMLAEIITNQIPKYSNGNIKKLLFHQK
Nature of the assay: GR competitor assay by fluorescence polarization (binding activity to glucocorticoid receptor). The conditions noted are these: 20 μM test compound solution, 25 μL per well plus 12.5 μL each of 4×GS1 and 4×GR solution; Fluormone GS1 ligand; positive control 2 mM dexamethasone; read-out: GR Binding ratio (%). On the procedure:
1. Evaluation Test for Binding Activity to Glucocorticoid Receptor (Hereinafter Referred to as “GR”)
In order to evaluate a binding activity to GR, a receptor competitor assay was carried out by a fluorescence polarization method. In the assay, a GR competitor assay kit (manufactured by Invitrogen, cat No. P2816) was used, and a procedure was carried out according to the protocol attached to the kit. Hereinafter, the specific method will be described.
GR screening buffer: A buffer containing 10 mM potassium phosphate (pH 7.4), 20 mM sodium molybdate (Na2MoO4), 0.1 mM ethylene diamine tetraacetic acid (EDTA), 5 mM dithiothreitol (DTT), 0.1 mM stabilizing peptide and 2% dimethylsulfoxide was prepared.
4×GS1 solution: Fluormone™ GS1, which is a fluorescent glucocorticoid ligand, was diluted with GR screening buffer, whereby a 4 nM solution was prepared.
4×GR solution: Recombinant human GR was diluted with GR screening buffer, whereby a 16 nM solution was prepared.
After a test compound was dissolved in dimethylsulfoxide, the resulting solution was diluted with GR screening buffer, whereby a 20 μM test compound solution was prepared.
1) The test compound solution was added in an amount of 25 μL into each well of a 96-well plate, and then, 4×GS1 solution and 4×GR solution were added in an amount of 12.5 μL into each well, respectively.
2) The plate was incubated in a dark place at room temperature for 2 to 4 hours.
3) By using a multimode plate reader, Analyst™ HT (manufactured by LJL Biosystems), fluorescence polarization of each well was measured. As the blank, a well containing GR screening buffer in place of the test compound and 4×GS1 solution was used.
4) The same procedure as that in the above 1) to 3) was carried out except that GR screening buffer was used in place of the test compound solution, and the obtained result was taken as the negative control.
5) The same procedure as that in the above 1) to 3) was carried out except that 2 mM dexamethasone was used in place of the test compound solution, and the obtained result was taken as the positive control.
A GR binding ratio (%) was calculated from the following equation.
GR binding ratio (%)=100×[1-(fluorescence polarization of test compound solution-fluorescence polarization of positive control solution)/(fluorescence polarization of negative control solution—fluorescence polarization of positive control solution)]

On to `COc1cc(NC(=O)c2ccncc2)ccc1-c1ccc2c(c1COc1cc(F)ccc1C)N(C)C(=O)C(C)(C)N2` [Compound 14-21, 8-(5-fluoro-2-methylphenoxymethyl)-7-[2-methoxy-4-(pyridin-4-ylcarbonylamino)phenyl]-1,3,3-trimethyl-3,4-dihydro-1H-quinoxalin-2-one], for which the inhibition at 10 µM came to 100%. Under `COc1cc(NC(=O)c2ccccc2Cl)ccc1-c1ccc2c(c1COc1cc(F)ccc1C)N(C)C(=O)C(C)(C)N2` [Compound 14-22] stands 100%; under `COc1ccc(C(=O)Oc2ccc(-c3ccc4c(c3COc3cc(F)ccc3C)N(C)C(=O)C(C)(C)N4)c(OC)c2)cc1` [Compound 14-30], 100%. Under `C=CC(=O)Oc1ccc(-c2ccc3c(c2COc2cc(F)ccc2C)N(C)C(=O)C(C)(C)N3)c(OC)c1` [Compound 14-33] stands 100%; under `COC(=O)Oc1ccc(-c2ccc3c(c2COc2cc(F)ccc2C)N(C)C(=O)C(C)(C)N3)c(OC)c1` [Compound 14-35], 93%. Next, `COc1cc(OC(=O)Oc2ccccc2)ccc1-c1ccc2c(c1COc1cc(F)ccc1C)N(C)C(=O)C(C)(C)N2` [Compound 14-36]: 88%; `COc1cc(NC(=O)Oc2ccccc2)ccc1-c1ccc2c(c1COc1cc(F)ccc1C)N(C)C(=O)C(C)(C)N2` [Compound 14-37]: 93%.

As for `COc1cc(OC(=O)c2ccccc2F)ccc1-c1ccc2c(c1COC(=O)c1ccc(C)s1)N(C)C(=O)C(C)(C)N2` [Compound 14-44], the inhibition at 10 µM is 100%. Under `COC(=O)c1cccc(C(=O)Oc2ccc(-c3ccc4c(c3COc3cc(F)ccc3C)N(C)C(=O)C(C)(C)N4)c(OC)c2)c1` [Compound 15-1, 8-(5-Fluoro-2-methylphenoxymethyl)-7-[2-methoxy-4-(3-methoxycarbonylbenzoyloxy)phenyl]-1,3,3-trimethyl-3,4-dihydro-1H-quinoxalin-2-one] stands 100%. With `COc1cc(OC(=O)c2cccnc2C)ccc1-c1ccc2c(c1COc1cc(F)ccc1C)N(C)C(=O)C(C)(C)N2` [Compound 15-2], the inhibition at 10 µM stood at 100%. Next, `COc1cc(OC(=O)c2ccccc2OC(C)=O)ccc1-c1ccc2c(c1COc1cc(F)ccc1C)N(C)C(=O)C(C)(C)N2` [Compound 15-4]: 98%.

On to `COc1cc(OC(=O)c2ccccc2SC)ccc1-c1ccc2c(c1COc1cc(F)ccc1C)N(C)C(=O)C(C)(C)N2` [Compound 15-6], for which the inhibition at 10 µM was determined as 100%. For the molecule `COc1cc(OC(=O)c2ccc(C)nc2)ccc1-c1ccc2c(c1COc1cc(F)ccc1C)N(C)C(=O)C(C)(C)N2` [Compound 15-9], the inhibition at 10 µM was determined as 100%. Under `COc1cc(OC(=O)c2cocn2)ccc1-c1ccc2c(c1COc1cc(F)ccc1C)N(C)C(=O)C(C)(C)N2` [Compound 15-11] stands 100%.

Turning to `COc1cc(OC(=O)c2cccc(C(C)=O)c2)ccc1-c1ccc2c(c1COc1cc(F)ccc1C)N(C)C(=O)C(C)(C)N2` [Compound 15-13], the inhibition at 10 µM was found to be 100%. With `COc1cc(OC(=O)c2sccc2Cl)ccc1-c1ccc2c(c1COc1cc(F)ccc1C)N(C)C(=O)C(C)(C)N2` [Compound 15-17], the inhibition at 10 µM was 95%. For the molecule `COc1cc(OC(=O)c2cccnc2OC)ccc1-c1ccc2c(c1COc1cc(F)ccc1C)N(C)C(=O)C(C)(C)N2` [Compound 15-22], the inhibition at 10 µM turned out to be 100%.

As for `COc1cc(OC(=O)c2ccccc2SC)ccc1-c1ccc2c(c1COC(=O)c1ccc(C)s1)N(C)C(=O)C(C)(C)N2` [Compound 15-24], the inhibition at 10 µM came out at 94%.

As for `COc1cc(N(C)C(C)=O)ccc1-c1ccc2c(c1COc1cc(F)ccc1C)N(C)C(=O)C(C)(C)N2` [Compound 16-3, 7-[4-(N-Acetyl-N-methylamino)-2-methoxyphenyl]-8-(5-fluoro-2-methylphenoxymethyl)-1,3,3-trimethyl-3,4-dihydro-1H-quinoxalin-2-one], the inhibition at 10 µM was determined as 86%. Next, `COc1cc(OC(=O)Nc2cccnc2)ccc1-c1ccc2c(c1COc1cc(F)ccc1C)N(C)C(=O)C(C)(C)N2` [Compound 17-5, 8-(5-Fluoro-2-methylphenoxymethyl)-7-[2-methoxy-4-(pyridin-3-ylaminocarbonyloxy)phenyl]-1,3,3-trimethyl-3,4-dihydro-1H-quinoxalin-2-one]: 91%. `COc1cc(OC(=O)Nc2ccccc2)ccc1-c1ccc2c(c1COC(=O)c1ccc(C)s1)N(C)C(=O)C(C)(C)N2` [Compound 17-16, 7-(2-Methoxy-4-phenylaminocarbonyloxyphenyl)-8-(5-methylthiophen-2-ylcarbonyloxymethyl)-1,3,3-trimethyl-3,4-dihydro-1H-quinoxalin-2-one]: the inhibition at 10 µM is 88%. Next, `COc1cc(OC(=O)N2CCOCC2)ccc1-c1ccc2c(c1COc1cc(F)ccc1C)N(C)C(=O)C(C)(C)N2` [Compound 18-1, 8-(5-Fluoro-2-methylphenoxymethyl)-7-[2-methoxy-4-(morpholin-4-ylcarbonyloxy)phenyl]-1,3,3-trimethyl-3,4-dihydro-1H-quinoxalin-2-one]: 100%; `COc1cc(OC(=O)N(C)C)ccc1-c1ccc2c(c1COc1cc(F)ccc1C)N(C)C(=O)C(C)(C)N2` [Compound 18-2, 7-(4-Dimethylaminocarbonyloxy-2-methoxyphenyl)-8-(5-fluoro-2-methylphenoxymethyl)-1,3,3-trimethyl-3,4-dihydro-1H-quinoxalin-2-one]: 99%; `COc1ccccc1NCc1c(-c2ccc(O)cc2OC)ccc2c1N(C)C(=O)C(C)(C)N2` [Compound 21-3, 7-(4-Hydroxy-2-methoxyphenyl)-8-(2-methoxyphenylaminomethyl)-1,3,3-trimethyl-3,4-dihydro-1H-quinoxalin-2-one]: 100%. Next, `CCCC(=O)Oc1ccc(-c2ccc3c(c2CNc2ccccc2OC)N(C)C(=O)C(C)(C)N3)c(OC)c1` [Compound 21-5, 7-(4-Butyryloxy-2-methoxyphenyl)-8-(2-methoxyphenylaminomethyl)-1,3,3-trimethyl-3,4-dihydro-1H-quinoxalin-2-one]: 98%; `COc1ccccc1NCc1c(-c2ccc(OC(=O)c3cccnc3C)cc2OC)ccc2c1N(C)C(=O)C(C)(C)N2` [Compound 21-12, 7-[2-Methoxy-4-(2-methylpyridin-3-ylcarbonyloxy)phenyl]-8-(2-methoxyphenylaminomethyl)-1,3,3-trimethyl-3,4-dihydro-1H-quinoxalin-2-one]: 100%. Under `COc1ccccc1NCc1c(-c2ccc(OC(=O)c3cscn3)cc2OC)ccc2c1N(C)C(=O)C(C)(C)N2` [Compound 21-13, 8-(2-Methoxyphenylaminomethyl)-7-[2-methoxy-4-(thiazol-4-ylcarbonyloxy)phenyl]-1,3,3-trimethyl-3,4-dihydro-1H-quinoxalin-2-one] stands 94%. In the case of `COc1cc(OC(=O)c2ccccc2C)ccc1-c1ccc2c(c1CNc1cc(F)ccc1C)N(C)C(=O)C(C)(C)N2` [Compound 21-22, 8-(5-Fluoro-2-methylphenylaminomethyl)-7-[2-methoxy-4-(2-methylbenzoyloxy)phenyl]-1,3,3-trimethyl-3,4-dihydro-1H-quinoxalin-2-one], the inhibition at 10 µM was determined as 100%.
